Columns and labels:
Assay type in all cases: cell-based, human
Treg cells = experiment: Treg-cell vs Tconv-cell expansion and proliferation in HD precultured PBMCs (flow cytometry, Ki67, CFSE); conditions: 0.01 mM MP, TAB08 1 μg/mL
Experimental: Treg-cell (CD25^hiFoxp3^+) and activated Tconv-cell (CD25^loFoxp3^−) frequencies among gated CD4^+ T cells were then assessed by flow cytometry using a live light-scatter entrance gate. […] Treg-cell frequencies among CD4^+ T cells and absolute numbers of Treg cells were determined by flow cytometry after 5 days of culture. […] Treg-cell versus Tconv-cell expansion in CD25-depleted and nondepleted PBMC cultures was then assessed by flow cytometry, using a live light-scatter entrance gate followed by gates for CD4^+Foxp3^− (left dot plots) and CD4^+Foxp3^+ (right dot plots). […] Proliferation was assessed by, in Panel D, the expression of Ki67 and Panel E CFSE dilution. *denotes insufficient number of cells for evaluation. […]
Cell proliferation was measured from day 2 to 3 as radioactivity incorporated from [H^3] thymidine (1 μCi per well, Hartmann Analytic GmbH) into DNA, using a liquid scintillation counter (PerkinElmer). Results are expressed as counts per minute (cpm). […]
For phenotypic analysis, cells were stained with the appropriate antibodies for 20 min at 4° C., washed once with FACS buffer (PBS, 0.1% BSA, 0.2% NaN3), and fixed with 2% paraformaldehyde. […] Data were analyzed using FlowJo Version 9.4.11 software (TreeStar). Results are shown as log 10 fluorescence intensities. […]

[1] = tested on: anti-CD3 stimulated CFSE-labeled CD4+ T cells; experiment: Treg-cell suppression assay; conditions: Enbrel during Treg-cell expansion, RA patient
regulatory T cells = experiment: Regulatory T cells and Ki67+ Tregs in RESTORE system, PBMC samples from RA patients (Table 16)
Experimental: (§1) PBMC were cultured in supplemented RPMI 1640 containing 10% AB-positive heat-inactivated human serum (Sigma) for two days at high cell density (HD; 1×10^7/ml) to allow tissue-like interactions. Cells were then harvested and cultured under standard conditions (1×10^6/ml) in 96 or 48-well flat-bottom tissue culture plates in a final volume of 0.2 or 0.6 ml in a humidified incubator at 37° C. with 5% CO2. Intracellular Ki67 staining was used to measure cell proliferation. For intracellular staining of Foxp3, Ki67 and CD4, cells were first surface stained, permeabilized with Fix/Perm (eBioscience), and stained with the appropriate antibodies diluted in Perm/Wash (eBioscience). FACS analysis was performed using a FACSCalibur flow cytometer (BD Biosciences). Data were analyzed using FlowJo software (TreeStar).

[2] = tested on: PBMC samples taken from RA patients; experiment: In vitro RESTORE system: cytokine production by PBMC samples from RA patients; conditions: OKT3 1 μg/ml
Excerpt: The purpose of the RESTORE method application was definition of safety parameters of the use of TAB08 antibody and the possibility of participation of RA patients in clinical trials, in particular:
To determine the levels of response of peripheral blood mononuclear cells of RA patients to various concentrations of TAB08, i.e. trace the dose-dependence of cytokine release by mononuclear cells exposed to TAB08 in vitro.
To determine the ability of methylprednisolone, which has an anti-inflammatory effect, to suppress TAB08-induced cytokine release.
as §1

C[C@H]1C[C@@H]2[C@H]([C@@H](O)C[C@@]3(C)[C@H]2CC[C@]3(O)C(=O)CO)[C@@]2(C)C=CC(=O)C=C12 [MP, methylprednisolone]
suppression of division of CD4+ Tconv cells (CFSE) (Treg cells): ~80%

Enbrel
effect on suppressive activity of TAB08-expanded Treg cells [1]: did not lead to further enhancement of suppressive activity

OKT3: Clinical grade OKT3 (Janssen-Cilag), anti-CD3 (anti-TCR) antibody used as stimulus
% FoxP3+/CD4+ (regulatory T cells; Patient 0104, OKT3 1 μg_mL): 4.96% | % Ki67+/FoxP3+ CD4+ (regulatory T cells; Patient 0104, OKT3 1 μg_mL): 84.9% | % FoxP3+/CD4+ (regulatory T cells; Patient 0105, OKT3 1 μg_mL): 5.1% | % Ki67+/FoxP3+ CD4+ (regulatory T cells; Patient 0105, OKT3 1 μg_mL): 80.5% | % FoxP3+/CD4+ (regulatory T cells; Patient 0204, OKT3 1 μg_mL): 4.52% | % Ki67+/FoxP3+ CD4+ (regulatory T cells; Patient 0204, OKT3 1 μg_mL): 77.7% | % FoxP3+/CD4+ (regulatory T cells; Patient 0205, OKT3 1 μg_mL): 4.62% | % Ki67+/FoxP3+ CD4+ (regulatory T cells; Patient 0205, OKT3 1 μg_mL): 67.7% | % FoxP3+/CD4+ (regulatory T cells; Patient 0206, OKT3 1 ug_ml): 2.79% | % Ki67+/FoxP3+ CD4+ (regulatory T cells; Patient 0206, OKT3 1 ug_ml): 80.8% | IL-2 production [2]: 0.00 pg/mL
